Tests used:
Format in all cases: in vivo
[1] = system: SHP-77 (CRL-2195, ATCC) MSS small cell lung carcinoma xenografts; assay: SHP-77 MSS SCLC xenograft efficacy in nude mice; conditions: irinotecan i.v. once a week
Protocol: SHP-77 (CRL-2195, ATCC) is a MSS small cell lung carcinoma (SCLC). It was cultured in RPMI 1640 Medium, GlutaMAX™ (#61870036, GIBCO) supplemented with 10% FCS (#2-O-1F30-I, BioConcept). Cells were passaged by washing first with Dulbecco's PBS without Ca^2+/Mg^2+ (#3-05F29-1, AMIMED), trypsinising cells with Trypsin 0.05% in PBS with EDTA (#5-51F00-H, AMIMED), centrifuging in the respective culture media, and splitting cells into fresh media at a ratio of 1:8, 2 times per week.
Athymic nude mice (Charles River, Germany) were allowed to adapt for 7 days upon arrival at the animal facility and housed in a pathogen-controlled environment (5 mice/Type III cage) with access to food and water ad libitum. Animals were identified with transponders. […]
(§1) Tumor volumes (TVol), determined from caliper measurements (using the formula I*w2*TT/6) were measured two times per week. Tumor response was quantified by the change in tumor volume (endpoint minus starting value in mm^3) as the T/C. In the case of a tumor regression or to assess the percentage of change in TVol, the tumor response was quantified by the percentage of regression of the starting TVol. The body-weight (BW) of the animal was measured three times per week allowing calculation at any particular time-point relative to the day of initiation of treatment (day 0) of the percentage change in BW (4% BW).

[2] = Body weight / tolerability in SHP-77 tumor-bearing nude mice; conditions: SHP-77 study; irinotecan 15 mg/kg; FIGS. 46 and 47
Protocol: as §1

[3] = system: T84 (CCL-248, ATCC) MSS colorectal carcinoma xenografts; assay: T84 MSS CRC xenograft efficacy in nude mice; conditions: Compound A 120 mg/kg p.o.; irinotecan 5 mg/kg i.v. once a week
Protocol: T84 (CCL-248, ATCC) is MSS colorectal carcinoma (CRC). It was cultured in DMEM (#1-26F01-I, AMIMED) supplemented with 10% FCS (#2-0-1F30-I, BioConcept), 4 mM L-glutamine (#5-10K50-H, BioConcept) and 1 mM Sodium pyruvate (#5-60F00-H, BioConcept). Cells were passaged by washing first with Dulbecco's PBS without Ca^2+/Mg^2+ (#3-05F29-1, AMIMED), trypsinising cells with Trypsin 0.05% in PBS with EDTA (#5-51F00-H, AMIMED), centrifuging in the respective culture media, and splitting cells into fresh media at a ratio of 1:8, 2 times per week.
Athymic nude mice (Charles River, Germany) were allowed to adapt for 7 days upon arrival at the animal facility and housed in a pathogen-controlled environment (5 mice/Type III cage) with access to food and water ad libitum. […]
as §1

SMILES | effect on tumor growth of parental SHP77 tumors [1] | body weight change [2] | effect on tumor growth of parental T84 tumors [3]
CCc1c2c(nc3ccc(OC(=O)N4CCC(N5CCCCC5)CC4)cc13)-c1cc3c(c(=O)n1C2)COC(=O)[C@]3(O)CC [irinotecan] | no effect | slight body weight loss | delay of the tumor growth
CCc1c(N2CCN(C(=O)c3ncnc(C)c3O)CC2)c(=O)n2nc(C3=CCOCC3)nc2n1CC(=O)Nc1ccc(C(F)(F)F)cc1Cl [Compound A] | – | – | no effect
